Laboratory results published in patent publication US20020137929A1, “1 - (3-heterocyclylphenyl) isothiourea, -isourea, -guanidine and -amidine herbicidal agents” (Intellectual Property Department, BASF Aktiengesellschaft, priority 1998, published 2002).

What was measured:
SETVI (Foxtail, Green) = test: Postemergence herbicidal evaluation; format: in vivo, Setaria viridis; details: postemergence
Method in brief: (§1)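 Seedlings grown about two weeks were sprayed at 40 psi with compound dispersed in 50/50 acetone/water plus 0.5% TWEEN 20, at about 0.0156 to 0.500 kg/ha. Plants were kept in the greenhouse and scored 4–5 weeks later on a 0–9 visual scale against untreated controls.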

[1] = test system: CHEAL (Lambsquarters, Common); test: Preemergence herbicidal evaluation; format: in vivo, Chenopodium album; details: rate 0.2500 kg/ha; rated 4-5 weeks after treatment
Method in brief: (§2)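 Sown cups got a single aqueous acetone spray of test compound (roughly 0.0156–0.500 kg/ha) before seedlings emerged. Evaluation, 4–5 weeks on, used a 0–9 visual scale covering plant stand, vigor, size, malformation, chlorosis and general appearance compared with controls.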

CYPSE (Flatsedge) = test: Preemergence weed control under flooded paddy conditions; format: in vivo, Cyperus serotinus; details: 0.0313 kg/ha, rated 3-4 weeks after treatment
Method in brief: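 First, seeds or propagules go into the top 0.5 cm of silt loam; next, water is held 1.5 to 3 cm over the soil; then compound (50/50 acetone/water) is pipetted into it at about 0.0313 to 0.500 kg/ha; finally plants are rated visually 0-9 after three to four weeks.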

AMBEL (Ragweed, Common) [2] = test: Preemergence herbicidal evaluation; format: in vivo, Ambrosia artemisifolia; details: rated 4-5 weeks after treatment
Method in brief: as §2

[3] = test system: ECHORC (Watergrass (Calif.)); test: Preemergence weed control under flooded paddy conditions; format: in vivo, Echinochloa oryzoides; details: rated 3-4 weeks after treatment
Method in brief: (§3)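 Visual injury scored 0-9 against control three to four weeks post-treatment, greenhouse-grown. Application: acetone/water (50/50) solutions dosed directly into flood water (1.5-3 cm over silt loam, planted top 0.5 cm), roughly 0.0313 to 0.500 kg/ha active ingredient.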

ORYSAT (Rice, Tebonnet) = test: Postemergence herbicidal evaluation; format: in vivo, Oryza sativa, (L.) Tebonnet; details: postemergence
Method in brief: as §1

AMBEL (Ragweed, Common) [4] = test: Postemergence herbicidal evaluation; format: in vivo, Ambrosia artemisifolia; details: postemergence
Method in brief: as §1

[5] = test system: GLXMAW (Soybean, Williams); test: Postemergence herbicidal evaluation; format: in vivo, Glycine max, (L.) Merr. cv Williams; details: postemergence
Method in brief: as §1

ABUTH (Velvetleaf) = test: Preemergence herbicidal evaluation; format: in vivo, Abutilon theophrasti; details: rated 4-5 weeks after treatment
Method in brief: as §2

ECHCG (Barnyardgrass) = test: Postemergence herbicidal evaluation; format: in vivo, Echinochloa crus-galli; details: postemergence
Method in brief: as §1

ZEAMX (Corn, Field) = test: Preemergence herbicidal evaluation; format: in vivo, Zea mays; details: rated 4-5 weeks after treatment
Method in brief: as §2

CYPIR (Rice Flatsedge) = test: Preemergence weed control under flooded paddy conditions; format: in vivo, Cyperus iria; details: rated 3-4 weeks after treatment
Method in brief: as §3

CCOC(=O)CN1C(=O)C(CC(=O)O)SC1=Nc1cc(-n2nc(C)n(C(F)F)c2=O)c(F)cc1Cl (stereo not drawn) [Compound 112, 2-{{2-Chloro-5-[4-(difluoromethyl)-4,5-dihydro-3-methyl-5-oxo-1H-1,2,4-triazol-1-yl]-4-fluorophenyl}imino}-4-oxo-3,5-thiazolidinediacetic acid, 3-ethyl ester]
herbicidal rating SETVI (SETVI (Foxtail, Green); rate 0.0158 kg/ha): 3.0 | herbicidal rating SETVI (SETVI (Foxtail, Green); rate 0.0315 kg/ha): 9.0 | herbicidal rating SETVI (SETVI (Foxtail, Green); rate 0.0630 kg/ha): 6.0 | Preemergence herbicidal rating CHEAL [1]: 1.0 | CYPSE herbicidal effect rating (CYPSE (Flatsedge)): 0.0 | Preemergence herbicidal rating AMBEL (AMBEL (Ragweed, Common) [2]; rate 0.0313 kg/ha): 0.0 | Preemergence herbicidal rating AMBEL (AMBEL (Ragweed, Common) [2]; rate 0.0625 kg/ha): 0.0 | Preemergence herbicidal rating AMBEL (AMBEL (Ragweed, Common) [2]; rate 0.1250 kg/ha): 0.0 | Preemergence herbicidal rating AMBEL (AMBEL (Ragweed, Common) [2]; rate 0.2500 kg/ha): 0.0 | ECHORC herbicidal effect rating ([3]; 0.0313 kg/ha): 0.0 | ECHORC herbicidal effect rating ([3]; 0.0625 kg/ha): 3.0 | ECHORC herbicidal effect rating ([3]; 0.1250 kg/ha): 3.0 | ECHORC herbicidal effect rating ([3]; 0.2500 kg/ha): 3.0 | herbicidal rating ORYSAT (ORYSAT (Rice, Tebonnet); rate 0.0158 kg/ha): 2.0 | herbicidal rating ORYSAT (ORYSAT (Rice, Tebonnet); rate 0.0315 kg/ha): 2.0 | herbicidal rating ORYSAT (ORYSAT (Rice, Tebonnet); rate 0.0630 kg/ha): 2.5 | herbicidal rating AMBEL (AMBEL (Ragweed, Common) [4]; rate 0.0158 kg/ha): 5.0 | herbicidal rating AMBEL (AMBEL (Ragweed, Common) [4]; rate 0.0315 kg/ha): 9.0 | herbicidal rating AMBEL (AMBEL (Ragweed, Common) [4]; rate 0.0630 kg/ha): 9.0 | herbicidal rating GLXMAW ([5]; rate 0.0158 kg/ha): 5.5 | herbicidal rating GLXMAW ([5]; rate 0.0315 kg/ha): 5.0 | herbicidal rating GLXMAW ([5]; rate 0.0630 kg/ha): 6.0 | Preemergence herbicidal rating ABUTH (ABUTH (Velvetleaf); rate 0.0313 kg/ha): 0.0 | Preemergence herbicidal rating ABUTH (ABUTH (Velvetleaf); rate 0.0625 kg/ha): 0.0 | Preemergence herbicidal rating ABUTH (ABUTH (Velvetleaf); rate 0.2500 kg/ha): 1.0 | herbicidal rating ECHCG (ECHCG (Barnyardgrass); rate 0.0158 kg/ha): 2.0 | herbicidal rating ECHCG (ECHCG (Barnyardgrass); rate 0.0315 kg/ha): 4.0 | herbicidal rating ECHCG (ECHCG (Barnyardgrass); rate 0.0630 kg/ha): 4.0 | Preemergence herbicidal rating ZEAMX (ZEAMX (Corn, Field); rate 0.0313 kg/ha): 0.0 | Preemergence herbicidal rating ZEAMX (ZEAMX (Corn, Field); rate 0.0625 kg/ha): 0.0 | Preemergence herbicidal rating ZEAMX (ZEAMX (Corn, Field); rate 0.1250 kg/ha): 1.0 | Preemergence herbicidal rating ZEAMX (ZEAMX (Corn, Field); rate 0.2500 kg/ha): 4.0 | CYPIR herbicidal effect rating (CYPIR (Rice Flatsedge); 0.0313 kg/ha): 0.0 | CYPIR herbicidal effect rating (CYPIR (Rice Flatsedge); 0.0625 kg/ha): 3.0 | CYPIR herbicidal effect rating (CYPIR (Rice Flatsedge); 0.1250 kg/ha): 6.0 | CYPIR herbicidal effect rating (CYPIR (Rice Flatsedge); 0.2500 kg/ha): 7.0
